Test system: BxPC-3 cells
Assay: Cell viability assay (CellTiter Glo)
Type: cell-based
Details: Homo sapiens, 72 h

EC50: 19 µM
Compound: CCC(=O)N1N=C(c2c(-c3ccccc3)c3cc(Cl)ccc3[nH]c2=O)CC1c1ccc(OC)cc1 (stereo not shown) [d.12, 6-chloro-3-[3-(4-methoxyphenyl)-2-propanoyl-3,4-dihydropyrazol-5-yl]-4-phenyl-1H-quinolin-2-one]
